# Test results: EP0857721A1, “ACRIDONE COMPOUNDS” (Eisai Co., Ltd., priority 1995, dated 1997)
# Tested on: RBL-2H3 cells
# Assay: Inhibition of serotonin liberation from IgE-sensitized, antigen-stimulated RBL-2H3 cells ([3H]-serotonin)
# Format: cell-based
# Conditions: Rattus norvegicus; IgE-sensitized RBL-2H3 cells stimulated with specific antigen; [3H]-labeled serotonin
# Source text: Under the action of an antigen specific to the IgE antibody, RBL-2H3 cells, i.e., a cell line originating in rat cells, not only liberate histamine and serotonin but also produce and liberate cytokines such as TNF" serving as an inflammatory mediator and prostaglandins. In this experimental system, the effects of the compounds of the present invention of inhibiting the liberation of various mediators were examined by using serotonin as an indication.
# The cells were labeled with [^3H]-labeled serotonin and, at the same time, sensitized with the IgE antibody. Next, these cells were incubated in the presence of the acridone compounds according to the present invention and then stimulated with the specific antigen. Then the serotonin liberation inhibitory activity of each acridone compound was calculated from the amount of the [^3H]-labeled serotonin thus liberated into the medium due to the above-mentioned stimulation and the amount of the [^3H]-labeled serotonin liberated into the medium by the same experimental procedure as the one described above but adding no acridone compound of the present invention.
row,SMILES,IC50
1,Cc1ccc2c(=O)c3c(CCC(=O)O)cccc3n(CCCNCc3ccccc3)c2c1C [Compound 5],3 µM
2,Cc1ccc2c(=O)c3c(C(C)CC(=O)O)cccc3n(CCCNCc3ccccc3)c2c1C (stereo not shown) [Compound 8],8 µM
3,Cc1ccc2c(=O)c3c(C(C)CC(=O)O)cccc3n(CCCNCc3ccc(Cl)cc3Cl)c2c1C (stereo not shown) [Compound 9],10 µM
4,Cc1ccc2c(=O)c3c(CC(=O)O)cccc3n(CCCNCc3cc4ccccc4o3)c2c1C [Compound 11],0.5 µM
5,Cc1ccc2c(=O)c3c(CC(=O)O)cccc3n(CCCNCc3ccco3)c2c1C [Compound 12],0.5 µM
6,Cc1ccc2c(=O)c3c(CC(=O)O)cccc3n(CCCN)c2c1C [Compound 14],10 µM
7,Cc1ccc2c(=O)c3c(C(C)CC(=O)O)cccc3n(CCCN)c2c1C (stereo not shown) [Compound 18],10 µM
8,CCOC(=O)Cc1cccc2c1c(=O)c1ccc(C)c(C)c1n2CCCNCc1ccccc1 [Compound 21],8 µM
9,COC(=O)CCc1cccc2c1c(=O)c1ccc(C)c(C)c1n2CCCNCc1ccccc1 [Compound 22],3 µM
10,Cc1ccc2c(=O)c3c(CC(=O)O)cccc3n(CCCNCc3ccc(Cl)c(Cl)c3O)c2c1C [Compound 23],8 µM
11,Cc1ccc2c(=O)c3c(CC(=O)O)cccc3n(CCCNCc3ccc(Cl)c(O)c3Cl)c2c1C [Compound 24],8 µM
12,Cc1ccc2c(=O)c3c(CC(=O)O)cccc3n(CCCN(C)Cc3ccc(Cl)c(O)c3Cl)c2c1C [Compound 25],6 µM
13,Cc1ccc(CNCCCn2c3cccc(CC(=O)O)c3c(=O)c3ccc(C)c(C)c32)c(C)c1 [Compound 26],10 µM
14,Cc1ccc(CN(C)CCCn2c3cccc(CC(=O)O)c3c(=O)c3ccc(C)c(C)c32)c(C)c1 [Compound 27],10 µM
15,Cc1ccc2c(=O)c3c(CC(=O)O)cccc3n(CCCNCc3ccc(C(F)(F)F)cc3C(F)(F)F)c2c1C [Compound 29],8 µM
16,Cc1ccc2c(=O)c3c(CC(=O)O)cccc3n(CCCNCc3ccc(Cl)cc3O)c2c1C [Compound 30],2 µM
17,Cc1ccc2c(=O)c3c(CC(=O)O)cccc3n(CCCNCc3ccc(O)cc3)c2c1C [Compound 31],1 µM
18,Cc1ccccc1CNCCCn1c2ccccc2c(=O)c2ccc(C)c(C)c21 [Compound 32],1 µM
19,Cc1cccc(CNCCCn2c3ccccc3c(=O)c3ccc(C)c(C)c32)c1 [Compound 33],2 µM
20,Cc1ccc2c(=O)c3ccccc3n(CCCNCc3cccc(C#N)c3)c2c1C [Compound 35],3 µM
21,Cc1ccc2c(=O)c3ccccc3n(CCCNCc3ccc(C#N)cc3)c2c1C [Compound 36],2 µM
22,Cc1ccc2c(=O)c3ccccc3n(CCCNCc3cccc(C(F)(F)F)c3)c2c1C [Compound 38],2 µM
23,Cc1ccc2c(=O)c3ccccc3n(CCCNCc3ccccc3F)c2c1C [Compound 41],3 µM
24,Cc1ccc2c(=O)c3ccccc3n(CCCNCc3cccc(F)c3)c2c1C [Compound 42],2 µM
25,Cc1ccc2c(=O)c3ccccc3n(CCCNCc3ccc(F)cc3)c2c1C [Compound 43],2 µM
26,Cc1ccc2c(=O)c3ccccc3n(CCCNCc3ccccc3Br)c2c1C [Compound 44],5 µM
27,Cc1ccc2c(=O)c3ccccc3n(CCCNCc3cccc(Br)c3)c2c1C [Compound 45],2 µM

row,SMILES,IC50
1,Cc1cc(CNCCCn2c3ccccc3c(=O)c3ccc(C)c(C)c32)ccc1O [Compound 46],4 µM
2,Cc1cc(CNCCCn2c3ccccc3c(=O)c3ccc(C)c(C)c32)cc(C)c1O [Compound 47],7 µM
3,Cc1ccc2c(=O)c3ccccc3n(CCCNCc3c(Cl)cccc3Cl)c2c1C [Compound 48],1 µM
4,COC(=O)c1ccc(CNCCCn2c3ccccc3c(=O)c3ccc(C)c(C)c32)cc1 [Compound 50],4 µM
5,Cc1ccc2c(=O)c3ccccc3n(CCCNCc3ccc(C(N)=O)cc3)c2c1C [Compound 55],10 µM
6,Cc1ccc2c(=O)c3ccccc3n(CCCNCc3cccc(C(=O)O)c3)c2c1C [Compound 56],7 µM
7,Cc1ccc2c(=O)c3ccccc3n(CCCNCc3ccccc3C(F)(F)F)c2c1C [Compound 61],1 µM
8,Cc1ccc(CNCCCn2c3ccccc3c(=O)c3ccc(C)c(C)c32)cc1 [Compound 62],1 µM
9,Cc1ccc2c(=O)c3ccccc3n(CCCNCc3ccccc3Cl)c2c1C [Compound 63],10 µM
10,Cc1ccc2c(=O)c3ccccc3n(CCCNCc3cccc(Cl)c3)c2c1C [Compound 64],5 µM
11,Cc1ccc2c(=O)c3ccccc3n(CCCNCc3ccc(Br)cc3)c2c1C [Compound 66],5 µM
12,Cc1ccc2c(=O)c3ccccc3n(CCCNCc3ccc(Cl)cc3Cl)c2c1C [Compound 67],1 µM
13,CNS(=O)(=O)c1ccc(CNCCCn2c3ccccc3c(=O)c3ccc(C)c(C)c32)cc1 [Compound 69],7 µM
14,Cc1ccc2c(=O)c3ccccc3n(CCCNCc3ccc(S(=O)(=O)N(C)C)cc3)c2c1C [Compound 70],8 µM
15,Cc1ccc2c(=O)c3ccccc3n(CCCNOCc3ccccc3)c2c1C [Compound 72],2 µM
16,Cc1ccc2c(=O)c3ccccc3n(CCCN(CCC#N)Cc3ccccc3)c2c1C [Compound 75],3 µM
17,Cc1ccc2c(=O)c3ccccc3n(CCCN(CCC(N)=O)Cc3ccccc3)c2c1C [Compound 76],4 µM
18,Cc1ccc2c(=O)c3ccccc3n(CCCN(CCO)Cc3ccccc3)c2c1C [Compound 77],1 µM
19,Cc1cc(CN(C)CCCn2c3ccccc3c(=O)c3ccc(C)c(C)c32)cc(C)c1O [Compound 79],7 µM
20,Cc1ccc2c(=O)c3ccccc3n(CCCNc3cccc(-c4nnn[nH]4)c3)c2c1C [Compound 80],11 µM
21,COc1cccc(NCCCn2c3ccccc3c(=O)c3ccc(C)c(C)c32)c1 [Compound 81],10 µM
22,Cc1ccc2c(=O)c3ccccc3n(CCCN(C3CCCCC3)C3CCCCC3)c2c1C [Compound 83],5 µM
23,Cc1ccc(CNCCCn2c3cc(F)ccc3c(=O)c3ccc(C)c(C)c32)cc1 [Compound 86],3 µM
24,COc1ccc2c(=O)c3ccc(C)c(C)c3n(CCCNCc3ccc(C)cc3)c2c1 [Compound 87],2 µM
25,COc1cccc2c1c(=O)c1ccc(C)c(C)c1n2CCCNCc1ccc(C)cc1 [Compound 88],2 µM
26,CCN(CCCn1c2cccc(CC(=O)O)c2c(=O)c2ccc(C)c(C)c21)Cc1ccccc1 [Compound 91],8 µM
27,Cc1ccc(CN(C)CCCn2c3cccc(CC(=O)O)c3c(=O)c3ccc(C)c(C)c32)cc1 [Compound 95],10 µM

row,SMILES,IC50
1,Cc1ccc2c(=O)c3c(CC(=O)O)cccc3n(CCCN(C)Cc3cccc4ccccc34)c2c1C [Compound 97],10 µM
2,COc1ccc(CNCCCn2c3cccc(CC(=O)O)c3c(=O)c3ccc(C)c(C)c32)c(OC)c1 [Compound 99],10 µM
3,Cc1ccc2c(=O)c3c(CC(=O)O)cccc3n(CCCNCc3ccc(F)cc3F)c2c1C [Compound 100],10 µM
4,Cc1ccc2c(=O)c3c(CC(=O)O)cccc3n(CCCNCc3ccc(F)c(F)c3)c2c1C [Compound 103],3 µM
5,Cc1ccc2c(=O)c3c(CC(=O)O)cccc3n(CCCNCc3ccc(F)cc3)c2c1C [Compound 104],5 µM
6,Cc1ccc2c(=O)c3c(CC(=O)O)cccc3n(CCCNCc3ccccc3Cl)c2c1C [Compound 105],5 µM
7,Cc1ccc2c(=O)c3c(CC(=O)O)cccc3n(CCCNCc3cccc(Cl)c3)c2c1C [Compound 106],10 µM
8,Cc1ccc2c(=O)c3c(CC(=O)O)cccc3n(CCCNCc3ccccc3F)c2c1C [Compound 107],6 µM
9,Cc1ccc2c(=O)c3c(CC(=O)O)cccc3n(CCCNCc3cccc(F)c3)c2c1C [Compound 108],5 µM
10,Cc1ccc2c(=O)c3c(CC(=O)O)cccc3n(CCCN(CCO)Cc3ccccc3)c2c1C [Compound 109],3 µM
11,Cc1ccc2c(=O)c3c(CC(=O)O)cccc3n(CCCN(C)CCc3ccccc3)c2c1C [Compound 113],8 µM
12,Cc1ccc2c(=O)c3c(CC(=O)O)cccc3n(CCCNCc3ccccc3C(F)(F)F)c2c1C [Compound 116],3 µM
13,Cc1ccc2c(=O)c3ccccc3n(Cc3ccccc3CN)c2c1C [Compound 117],10 µM
14,Cc1ccc2c(=O)c3ccccc3n(Cc3ccc(CN)cc3)c2c1C [Compound 119],4 µM
15,Cc1ccc2c(=O)c3ccccc3n(Cc3cccc(CN)n3)c2c1C [Compound 120],8 µM
16,Cc1ccc2c(=O)c3ccccc3n(Cc3ccc(CNCc4ccco4)cc3)c2c1C [Compound 125],10 µM
17,Cc1ccc2c(=O)c3ccccc3n(Cc3ccc(CNCc4ncc[nH]4)cc3)c2c1C [Compound 126],10 µM
18,Cc1ccc2c(=O)c3ccccc3n(Cc3ccccc3CNCc3ncc[nH]3)c2c1C [Compound 127],5 µM
19,Cc1ccc2c(=O)c3ccccc3n(Cc3cccc(CNCc4ccccc4)n3)c2c1C [Compound 128],1 µM
20,Cc1ccc2c(=O)c3ccccc3n(CC=CCNCc3ccccc3)c2c1C [Compound 129],8 µM
21,Cc1ccc2c(=S)c3ccccc3n(CCCN)c2c1C [Compound 130],10 µM
22,Cc1ccc2c(=S)c3ccccc3n(CCCNCc3ccccc3)c2c1C [Compound 131],10 µM
23,Cc1ccc2c(=O)c3ccccc3n(Cc3ccc(CNCc4ccccc4)o3)c2c1C [Compound 133],2 µM
24,Cc1ccc2c(=O)c3c(CC(=O)N(C)C)cccc3n(CCCN(C)Cc3ccccc3)c2c1C [Compound 136],10 µM
25,Cc1ccc2c(=O)c3c(C(C)C(=O)O)cccc3n(CCCN(C)Cc3ccccc3)c2c1C (stereo not shown) [Compound 140],4 µM
